# Assay results published in article PMC4621755 (Chemistry & biology, 2015).
# Target: T1, Acaa2 (Mus musculus, UniProt Q8BWT1)
# T1 sequence (Q8BWT1 1-397): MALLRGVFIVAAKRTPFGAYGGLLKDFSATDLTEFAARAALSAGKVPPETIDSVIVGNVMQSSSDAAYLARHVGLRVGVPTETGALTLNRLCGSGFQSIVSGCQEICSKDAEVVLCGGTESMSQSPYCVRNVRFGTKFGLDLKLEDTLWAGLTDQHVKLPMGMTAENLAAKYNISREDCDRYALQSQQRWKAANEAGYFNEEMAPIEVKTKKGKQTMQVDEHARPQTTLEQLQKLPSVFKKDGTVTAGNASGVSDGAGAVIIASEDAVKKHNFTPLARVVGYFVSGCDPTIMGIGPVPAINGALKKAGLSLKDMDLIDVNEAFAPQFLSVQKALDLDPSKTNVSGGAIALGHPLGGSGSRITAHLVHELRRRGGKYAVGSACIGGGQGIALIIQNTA
# Test: competition against IAyne labelling, in-gel fluorescence
# Assay type: biochemical
# Conditions: covalent; lysate of overexpressing HEK293T; 30 min preincubation
smiles,measurement,value
N#Cc1c(Cl)c(Cl)c(Cl)c(C#N)c1Cl [chlorothalonil],% reduction in IAyne labeling at 100 nM,9.4 ± 1.2%
